This note sets out measurements from PubChem BioAssay (NCI).

Test in all cases: NCI tumour cell line growth inhibition, 48 h
For test [1], the system named is SNB-75 CNS.
In test [2] the test system is OVCAR-8 ovarian.
Test [3] deals with BT-549 breast.
The subject of test [4] is M14 melanoma.
In test [5] the test system is COLO 205 colon.
In test [6] the test system is NCI/ADR-RES ovarian.
Test [7] concerns K-562 leukemia.
Test [8] relates to NCI-H522 lung.
For test [9], the system named is EKVX NSCLC.
Test [10] has as its system LOX IMVI melanoma.

Structures are written as SMILES. Several values for one entry are separate records, joined by “and”; a condition that tells them apart may be missing. Equal values may be shown once.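 48-hour exposure; five concentrations; linearly interpolated endpoints. Abbreviation: GI50, concentration required for 50% inhibition of growth. TGI: concentration producing complete growth inhibition.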 A value given as a limit tells only on which side of the number the result lay.

Take `O=S1(=O)NC2CCC3NS(=O)(=O)NC4CCC(N1)N4S(=O)(=O)N23` (stereo not drawn): the TGI in test [1], in test [2], in [3], in test [4], in [5] and in [6] was greater than 100000 nM throughout. Also, the TGI in test [7], in [8], in test [9] and in test [10] was greater than 100000 nM in each case.

On to `CCOc1ccc2c(C)cc(=O)oc2c1`, for which the TGI in [1], in test [2], in [3], in [4], in test [5] and in test [6] was greater than 100000 nM throughout. The TGI in test [7], in [8], in test [9] and in [10] was greater than 100000 nM each time.

For `C=C1CC[C@@H]2[C@](C)(COC(C)=O)[C@H](OC(C)=O)CC[C@@]2(C)[C@@H]1CC(Nc1ccc(S(=O)(=O)Nc2cc(C)on2)cc1)C1=CCOC1=O` (stereo partly drawn), the GI50 was 2030 nM in test [1]; 1880 nM in [2]; 1790 nM in test [3]; 1690 nM in test [4]; 1970 nM in test [5]; 2410 nM in test [6]. In addition, the GI50 is 1570 nM in [7], 1040 nM in test [8], 11000 nM in test [9] and 1180 nM in test [10]. For the same molecule, the TGI was found to be 11500 nM in test [1]; 4300 nM in [2]; 3470 nM in [3]; 4170 nM in [4]; 4340 nM in test [5]; 12000 nM in test [6]. Also, the TGI in [7] turned out to be 8420 nM; in [8], 2420 nM; in test [9], 25900 nM; in test [10], 2540 nM.

On to `Cc1cc2nc3ccc(=[N+](C)C)cc-3sc2cc1N`, for which the GI50 in test [1] was 1430 nM and 1340 nM; in test [2], 270 nM and 800 nM; in [3] it was 2750 nM and 2090 nM; in test [4] it was 368 nM and 703 nM; in test [5], 745 nM and 309 nM; in test [6], 272 nM and 265 nM. For the same molecule, the GI50 in [7] is 201 nM and 318 nM; in [8], 274 nM and 1570 nM; in [9], 2120 nM and 1720 nM; in test [10], 270 nM and 301 nM. For the same molecule, the TGI was 4030 nM and 24500 nM and 3370 nM in test [1]; 1990 nM and 7220 nM and 7300 nM in test [2]; 19700 nM and 25200 nM and 18200 nM in test [3]; 1380 nM and 9090 nM and 2280 nM in test [4]; 2190 nM and 9280 nM and 940 nM in test [5]; 3610 nM and 7980 nM and 1490 nM in test [6]. Also, the TGI in test [8] is 1660 nM and 8940 nM and 10300 nM; in test [9] it was 9090 nM and 17200 nM and 8020 nM; in [10], 1370 nM and 8390 nM and 1400 nM.

In the case of `Nc1ccccc1NC(=O)c1ccc(CN2CCC/C(=C\c3ccccn3)C2=O)cc1`, the GI50 in [1] was 1060 nM; in [2] it was 878 nM; in [3] it was 3200 nM; in test [4], 1050 nM; in [5] it was 1150 nM; in test [6], 1330 nM. Besides, the GI50 in test [7] is 414 nM; in test [8], 510 nM; in [9], 3750 nM; in test [10], 696 nM. In addition, the TGI in test [1] was 6050 nM; in test [2] it was greater than 100000 nM; in [3], greater than 100000 nM; in [4] it was greater than 100000 nM; in test [5], 3900 nM; in test [6], greater than 100000 nM. The TGI in test [7] was greater than 100000 nM; in [8], 3760 nM; in [9], greater than 100000 nM; in [10], 3070 nM.

As for `C/C(=N\NC(=S)N1CCN(C2CCCCCC2)CC1)c1ccccn1`, the TGI in test [1] is 5090 nM; in test [2], 7940 nM and 2630 nM; in [3], 2780 nM; in test [4], 2850 nM and 1200 nM; in test [5] it was 1480 nM; in test [6] it was 676 nM. Moreover, the TGI is 1670 nM and 970 nM in [7]; 120 nM and 267 nM in test [8]; 2860 nM in test [9]; 5290 nM and 1830 nM in test [10]. The GI50 in test [2] was less than 1 nM; in test [4] it was less than 1 nM; in test [7], less than 1 nM; in [8] it was less than 1 nM; in test [10], 17.3 nM.

`C=C1COC(O)(C2OCOC(C3CC(=O)NC(=O)C3)C2O)C1C` (stereo not drawn): the GI50 was 3.32 nM in test [1]; 4.25 nM and 10.4 nM in test [2]; 18.7 nM in test [3]; 3.23 nM in test [4]; 2.92 nM in [5]; 2.41 nM in test [7]. Also, the GI50 is 2.01 nM in test [8], 5.07 nM in [9] and 2.34 nM in test [10]. For the same molecule, the TGI in [1] is 33.6 nM and 19.5 nM; in test [2], 41.3 nM and 50.9 nM; in [3], 73.9 nM; in test [4], 17 nM and 23.2 nM; in [5], 12.8 nM; in test [6], 163 nM. Besides, the TGI is 41.1 nM in test [7]; 6.84 nM and 5.93 nM and 13.7 nM in test [8]; 40 nM and 266 nM in test [9]; 5.53 nM and 21.7 nM in test [10].
